According to US6375672B1, “Method for controlling the chemical and heat induced responses of collagenous materials” (Board of Trustees of Michigan State University, priority 1999, dated 2002):

System: rabbit patellar tendon specimen
Assay: post-denaturation tension test (stiffness) of heat-contracted tendon specimens treated with cross-linking agent
Design: species or system New Zealand rabbit
Conditions: FIG. 7; for stiffness increase when compared to a control without the cross-linking: then 0.1% glutaraldehyde for 15 minutes
Experimental: The achieve the above objectives, the present invention provides an in vitro testing system for developing procedures for treating joint instability problems and loose skin problems. In particular, the testing system performs a tensile test, which is a test wherein a constant rate of elongation is applied on the specimen and the resultant load is measured by a load cell; a viscoelasticity test, which is a test to determine the viscoelastic properties of the specimen; and, calculates stiffness which is the slope of elongation versus load graph. The testing system 110 is illustrated in FIG. 4 and consists of a hydrothermy cabin 120 that is attached to a universal testing machine 130, which is used to perform isothermal and isotonic heating of specimens. The hydrothermy cabin 120 provides a chamber which allows fluid to be circulated around all surfaces of specimen 123 held in between lower grip 124 and upper grip 125. Specimen 123 is secured to lower grip 124 using a fixture which is designed to keep specimen 123 at an angle to mimic anatomical loading while compensating for the offset created by the angle so as to ensure a straight line of loading. Specimen 123 is secured to upper grip 125 by a wedge-shaped fixture which is composed of two universal joints to give rotational freedom to specimen 123 to ensure that a purely uniaxial stress is created on specimen 123. The denaturation of the collagen in specimen 123 is produced by providing to hydrothermy cabin 120 high temperature saline solution 150 contained in reservoir 151 by means of high temperature saline solution supply line 152. […] The materials testing machine 130 performs a tensile test wherein a constant rate of eleongation is applied to specimen 123 and the resultant load is measured by a load cell (not shown); a viscoelasticity test wherein a constant load is applied on specimen 123 and the resultant elongation as a function of time is measured (creep test) or a constant elongation is imposed and the resulting load is measured (stress relaxation test) as a function of time. […]

O=CCCCC=O [glutaraldehyde]
stiffness of the specimen (15 minutes of 0.1% glutaraldehyde following heat treatment of either 75° C. or 80° C.): increased | stiffness increase when compared to a control without the cross-linking (heat treatment 75° C., 0.5 MPa load): more than 220% | stiffness increase when compared to a control without the cross-linking (heat treatment 80° C., 0.6 MPa load): more than 130%
